Where “and” joins values, the source holds several entries; their conditions need not be identical. Equal values may be shown once. Where a SMILES comes first, the peptide text is derived from it. [ ]: non-standard residue; d: D form. Hyp = O=C(O)[C@@H]1C[C@@H](O)CN1
Tested on: CCL5/RANTES
Test: Example 9 Luminex, LPS hPBMCs: CCL5/RANTES
Type: cell-based, human
Description: Treatment Human PBMCs were pretreated with YY-101, YDE-011 and YDE-043 or reference compound; Xiidra® at various concentration (ranging from 1 nM to 100 uM) for 2 h before stimulation. An equal volume of 0.5% DMSO was used as a vehicle control. Then, the cells were treated with LPS at 5 ug/ml. The supernatants from treated cells were harvested at 24 h and placed in a 96 well for Luminex cytokine & chemokine profiling using a Luminex 200 multiplex assay (Luminex; R&D system, USA).
The main study arm with triplicate wells per group in a 24-well plate: • 1. Blank • 2. PBMC: 0.5% DMSO • 3. PBMC+LPS (5 ug/ml) • 4. PBMC+YY-101 100 uM • 5. PBMC+YY-101 10 uM • 6. PBMC+YY-101 1 uM • 7. PBMC+YY-101 0.1 uM • 8. PBMC+YY-101 0.01 uM • 9. PBMC+LPS (5 ug/ml)+Xiidra®100 uM • 10. PBMC+LPS (5 ug/ml)+Xiidra® 10 uM • 11. PBMC+LPS (5 ug/ml)+Xiidra® 1 uM • 12. PBMC+LPS (5 ug/ml)+Xiidra®0.1 uM • 13. PBMC+LPS (5 ug/ml)+Xiidra®0.01 uM • 14. PBMC+LPS (5 ug/ml)+Xiidra®0.001 uM • 15. PBMC+LPS (5 ug/ml)+YY-101 100 uM • 16. PBMC+LPS (5 ug/ml)+YY-101 10 uM • 17. PBMC+LPS (5 ug/ml)+YY-101 1 uM • 18. PBMC+LPS (5 ug/ml)+YY-101 0.1 uM • 19. PBMC+LPS (5 ug/ml)+YY-101 0.01 uM • 20. PBMC+LPS (5 ug/ml)+YY-101 0.001 uM • 21. PBMC+LPS (5 ug/ml)+YDE-011 100 uM • 22. PBMC+LPS (5 ug/ml)+YDE-011 10 uM • 23. PBMC+LPS (5 ug/ml)+YDE-011 1 uM • 24. PBMC+LPS (5 ug/ml)+YDE-011 0.1 uM • 25. PBMC+LPS (5 ug/ml)+YDE-011 0.01 uM • 26. PBMC+LPS (5 ug/ml)+YDE-011 0.001 uM • 27. PBMC+LPS (5 ug/ml)+YDE-043 100 uM • 28. PBMC+LPS (5 ug/ml)+YDE-043 10 uM • 29. PBMC+LPS (5 ug/ml)+YDE-043 1 uM • 30. PBMC+LPS (5 ug/ml)+YDE-043 0.1 uM • 31. PBMC+LPS (5 ug/ml)+YDE-043 0.01 uM • 32. PBMC+LPS (5 ug/ml)+YDE-043 0.001 uM
Multiplex assay was used to measure 30 cytokines and chemokines. The 1:2, 1:10 and 1:200 diluted cell supernatant and serial dilution of the standard were dispensed into a 96 well plate at 50 ul/well. Then, the pre-mixed cocktail of antibody-coated magnetic beads was dispensed at 50 ul/well and incubated at room temperature for 2 h in a horizontal orbital microplate shaker at 800±500 rpm. The beads were washed using a magnetic device to prevent loss. The biotin-antibody was dispensed in 50 ul of each well and incubated at room temperature for 1 h in a shaker at 800±500 rpm. After washing, streptavidin-PE was added at 50 ul/well and incubated at room temperature for 30 min in a shaker under the same conditions. Finally, after washing, wash buffer (100 ul/well) was added to the plate and incubated in a shaker for 2 min. The Luminex™ 200 setting were set according to the manufacturer's protocol. The data was calculated with a standard five-parameter logistic nonlinear regression analysis of the data (xPonent software 4.2, USA). The levels of cytokine/chemokine are normalized to the live cell counts (1×10^5 cells/mL) and presented as concentrations per mL (pg/mL or ng/mL).

[1] = PBMC + LPS(5 ug/ml), test article 0.001 uM, Mean
[2] = PBMC + LPS(5 ug/ml), test article 0.001 uM, single replicates (1st, 2nd, 3rd)
[3] = PBMC + LPS(5 ug/ml), test article 0.01 uM, Mean
[4] = PBMC + LPS(5 ug/ml), test article 0.01 uM, single replicates (1st, 2nd, 3rd)
[5] = PBMC + LPS(5 ug/ml), test article 0.1 uM, Mean
[6] = PBMC + LPS(5 ug/ml), test article 0.1 uM, single replicates (1st, 2nd, 3rd)
[7] = PBMC + LPS(5 ug/ml), test article 1 uM, Mean
[8] = PBMC + LPS(5 ug/ml), test article 1 uM, single replicates (1st, 2nd, 3rd)
[9] = PBMC + LPS(5 ug/ml), test article 10 uM, Mean
[10] = PBMC + LPS(5 ug/ml), test article 10 uM, single replicates (1st, 2nd, 3rd)
[11] = PBMC + LPS(5 ug/ml), test article 100 uM, Mean
[12] = PBMC + LPS(5 ug/ml), test article 100 uM, single replicates (1st, 2nd, 3rd)
[13] = PBMC without LPS, test article 0.01 uM, Mean
[14] = PBMC without LPS, test article 0.01 uM, single replicates (1st, 2nd)
[15] = PBMC without LPS, test article 0.1 uM, Mean
[16] = PBMC without LPS, test article 0.1 uM, single replicates (1st, 2nd)
[17] = PBMC without LPS, test article 1 uM, Mean
[18] = PBMC without LPS, test article 1 uM, single replicates (1st, 2nd)
[19] = PBMC without LPS, test article 10 uM, Mean
[20] = PBMC without LPS, test article 10 uM, single replicates (1st, 2nd)
[21] = PBMC without LPS, test article 100 uM, Mean
[22] = PBMC without LPS, test article 100 uM, single replicates (1st, 2nd)

CC(C)C[C@H](NC(=O)CNC(=O)[C@H](CC(=O)O)NC(=O)[C@H](CCC(N)=O)NC(=O)CNC(=O)[C@@H]1C[C@@H](O)CN1)C(=O)N[C@@H](C)C(=O)NCC(=O)N1CCC[C@H]1C(=O)N[C@@H](CCCCN)C(=O)O [YY-101] (H-[Hyp]GQDGLAGPK-OH; N-terminus and C-terminus assumed)
Concentration (CCL5/RANTES) [1]: 402.3 pg/mL | MFI (Bead name: CCL5/RANTES) [1]: 1103.2 | conc/live cell (CCL5/RANTES) [1]: 62.7 pg/10^5 | Concentration (CCL5/RANTES) [2]: 407.4 pg/mL and 412.9 pg/mL and 386.6 pg/mL | MFI (Bead name: CCL5/RANTES) [2]: 1120.5 and 1139.5 and 1049.5 | conc/live cell (CCL5/RANTES) [2]: 71.5 pg/10^5 and 58.2 pg/10^5 and 58.6 pg/10^5 | Concentration (CCL5/RANTES) [3]: 454.1 pg/mL | MFI (Bead name: CCL5/RANTES) [3]: 1281.8 | conc/live cell (CCL5/RANTES) [3]: 73.6 pg/10^5 | Concentration (CCL5/RANTES) [4]: 476.2 pg/mL and 443.9 pg/mL and 442.2 pg/mL | MFI (Bead name: CCL5/RANTES) [4]: 1358.5 and 1246.5 and 1240.5 | conc/live cell (CCL5/RANTES) [4]: 74.4 pg/10^5 and 74.0 pg/10^5 and 72.5 pg/10^5 | Concentration (CCL5/RANTES) [5]: 428.0 pg/mL | MFI (Bead name: CCL5/RANTES) [5]: 1191.5 | conc/live cell (CCL5/RANTES) [5]: 73.5 pg/10^5 | Concentration (CCL5/RANTES) [6]: 432.4 pg/mL and 427.1 pg/mL and 424.5 pg/mL | MFI (Bead name: CCL5/RANTES) [6]: 1206.5 and 1188.5 and 1179.5 | conc/live cell (CCL5/RANTES) [6]: 69.7 pg/10^5 and 82.1 pg/10^5 and 68.5 pg/10^5 | Concentration (CCL5/RANTES) [7]: 430.6 pg/mL | MFI (Bead name: CCL5/RANTES) [7]: 1200.7 | conc/live cell (CCL5/RANTES) [7]: 66.2 pg/10^5 | Concentration (CCL5/RANTES) [8]: 456.2 pg/mL and 419.3 pg/mL and 416.4 pg/mL | MFI (Bead name: CCL5/RANTES) [8]: 1289.0 and 1161.5 and 1151.5 | conc/live cell (CCL5/RANTES) [8]: 72.4 pg/10^5 and 59.1 pg/10^5 and 67.2 pg/10^5 | Concentration (CCL5/RANTES) [9]: 430.1 pg/mL | MFI (Bead name: CCL5/RANTES) [9]: 1198.8 | conc/live cell (CCL5/RANTES) [9]: 65.2 pg/10^5 | Concentration (CCL5/RANTES) [10]: 422.8 pg/mL and 449.1 pg/mL and 418.4 pg/mL | MFI (Bead name: CCL5/RANTES) [10]: 1173.5 and 1264.5 and 1158.5 | conc/live cell (CCL5/RANTES) [10]: 70.5 pg/10^5 and 70.2 pg/10^5 and 55.1 pg/10^5 | Concentration (CCL5/RANTES) [11]: 336.7 pg/mL | MFI (Bead name: CCL5/RANTES) [11]: 881.7 | conc/live cell (CCL5/RANTES) [11]: 58.5 pg/10^5 | Concentration (CCL5/RANTES) [12]: 334.7 pg/mL and 330.4 pg/mL and 345.1 pg/mL | MFI (Bead name: CCL5/RANTES) [12]: 875.0 and 860.5 and 909.5 | conc/live cell (CCL5/RANTES) [12]: 53.1 pg/10^5 and 53.3 pg/10^5 and 69.0 pg/10^5 | Concentration (CCL5/RANTES) [13]: 36.8 pg/mL | MFI (Bead name: CCL5/RANTES) [13]: 52.0 | conc/live cell (CCL5/RANTES) [13]: 7.4 pg/10^5 | Concentration (CCL5/RANTES) [14]: 27.5 pg/mL and 46.1 pg/mL | MFI (Bead name: CCL5/RANTES) [14]: 37.5 and 66.5 | conc/live cell (CCL5/RANTES) [14]: 5.3 pg/10^5 and 9.6 pg/10^5 | Concentration (CCL5/RANTES) [15]: 36.2 pg/mL | MFI (Bead name: CCL5/RANTES) [15]: 50.5 | conc/live cell (CCL5/RANTES) [15]: 7.1 pg/10^5 | Concentration (CCL5/RANTES) [16]: 31.7 pg/mL and 40.7 pg/mL | MFI (Bead name: CCL5/RANTES) [16]: 43.5 and 57.5 | conc/live cell (CCL5/RANTES) [16]: 7.2 pg/10^5 and 7.0 pg/10^5 | Concentration (CCL5/RANTES) [17]: 35.3 pg/mL | MFI (Bead name: CCL5/RANTES) [17]: 49.0 | conc/live cell (CCL5/RANTES) [17]: 6.4 pg/10^5 | Concentration (CCL5/RANTES) [18]: 33.0 pg/mL and 37.6 pg/mL | MFI (Bead name: CCL5/RANTES) [18]: 45.5 and 52.5 | conc/live cell (CCL5/RANTES) [18]: 6.0 pg/10^5 and 6.8 pg/10^5 | Concentration (CCL5/RANTES) [19]: 79.0 pg/mL | MFI (Bead name: CCL5/RANTES) [19]: 136.0 | conc/live cell (CCL5/RANTES) [19]: 12.5 pg/10^5 | Concentration (CCL5/RANTES) [20]: 109.6 pg/mL and 48.3 pg/mL | MFI (Bead name: CCL5/RANTES) [20]: 201.5 and 70.5 | conc/live cell (CCL5/RANTES) [20]: 17.1 pg/10^5 and 7.9 pg/10^5 | Concentration (CCL5/RANTES) [21]: 67.1 pg/mL | MFI (Bead name: CCL5/RANTES) [21]: 107.0 | conc/live cell (CCL5/RANTES) [21]: 10.1 pg/10^5 | Concentration (CCL5/RANTES) [22]: 79.2 pg/mL and 55.0 pg/mL | MFI (Bead name: CCL5/RANTES) [22]: 131.5 and 82.5 | conc/live cell (CCL5/RANTES) [22]: 12.4 pg/10^5 and 7.9 pg/10^5

Reference: US20230146455A1, “TREATMENT OF INFLAMMATORY DISEASES WITH PEPTIDES AND PHARMACEUTICAL COMPOSITIONS” (Yuyu Pharma, Inc., priority 2020, published 2023)
